Values joined by “and” are separate entries in the source; they are usually repeats but may differ in a detail not shown here. Identical values can stand only once. Like-named read-outs stand apart in the source and are kept apart here.
What was measured:
c-Src = target: T1, c-Src (Homo sapiens, UniProt P12931); assay: c-Src Kinase Assay (ELISA format); format: biochemical
T1 construct: purchased Upstate Biotechnologies
Description: Inhibitors of Src (partially purified preparation purchased from Upstate Biotechnologies) tyrosine kinase activity are analyzed in an ELISA format. […] Horseradish Peroxidase (HRP)-conjugated anti-phosphotyrosine is used to detect phosphorylated peptide via a color reaction. Conditions recommended by the manufacturer are employed.
Reaction conditions: Five microliter aliquots of each compound prepared fresh at the time of the assay are added as a solution in 10mM HEPES pH 7.5, 10% DMSO to the reaction well. Thirty-five microliters of reaction mix containing Src, buffer and peptide/bovine serum albumin mix are added to the compound wells and incubated at 30°C for 10 minutes (reaction buffer: 50mM TrisHCl pH 7.5, 10mM MgCl2, 0.1mM EGTA, 0.5mM Na3VO4). The reaction is started by addition of 10 microliters of ATP, incubated at 30°C for 1 hour, and stopped by addition of 20 microliters of 0.5M EDTA. The reaction mixture with the phosphorylated peptide is then transferred to a streptavidin-coated microtiter plate (provided in the kit) and allowed to bind for 20 minutes. Unbound peptide and reaction mixture is decanted and the plate is washed with PBS six times. HRP-conjugated phosphotyrosine antibody supplied in the kit is incubated with the plate for one hour, then decanted. The plate is again washed with PBS six times.
Activity is determined as % inhibition as calculated by the formula: (1 - Abs/Abs(max)) x 100 = % inhibition.

[1] = system: Rat2 fibroblasts stably transformed with a plasmid containing a CMV promotor controlled v-Src/Hu c-Src fusion gene; assay: Anchorage Independent Src-transformed Fibroblast Proliferation Assay
[2] = Rattus norvegicus, Rat2, 120 h, read-out: anch-indep src-tx fib IC50, suspension growth, MTS on Day 5
[3] = read-out: anch-indep src-tx fib IC50, suspension growth, MTS on Day 5

Row | IC50 (c-Src) | Compound | other results
1 | 4.4 nM | CCN1CCN(c2ccc(-c3ccc4c(Nc5cc(OC)c(Cl)cc5Cl)c(C#N)cnc4c3)cn2)CC1 [Example 197, 4-(2,4-dichloro-5-methoxyanilino)-7-[6-(4-ethyl-1-piperazinyl)-3-pyridinyl]-3-quinolinecarbonitrile] | 
2 | 25 nM | COc1cc(Nc2c(C#N)cnc3cc(-c4cnc(CN5CCN(C)CC5)n4C)ccc23)c(Cl)cc1Cl [Example 227, 4-(2,4-dichloro-5-methoxyanilino)-7-{1-methyl-2-[(4-methyl-1-piperazinyl)methyl]-1H-imidazol-5-yl}-3-quinolinecarbonitrile] | 
3 | 111 nM | COc1cc(Nc2c(C#N)cnc3ccc(-c4csc(CN5CCOCC5)c4)cc23)c(Cl)cc1Cl [Example 50, 4-(2.4-Dichloro-5-methoxyanilino)-6-[5-(4-morpholinylmethyl)-3-thienyl]3-quinolinecarbonitrile] | 
4 | 12 nM and 15 nM | 4-(2,4-Dichloro-5-methoxyanilino)-6-methoxy-7-(1H-pyrrol-1-yl)-3-quinolinecarbonitrile [Example 59] | 
5 | 1.5 nM | COc1cc(Nc2c(C#N)cnc3cc(-c4cc(CN5CCOCC5)cs4)ccc23)c(Cl)cc1Cl [Example 68, 4-(2,4-Dichloro-5-methoxyanilino)-7-[4-(4-morpholinylmethyl)-2-thienyl]-3-quinolinecarbonitrile] | 
6 | 25 nM | N#Cc1cnc2cc(-c3csc(CN4CCOCC4)c3)ccc2c1Nc1ccc(Cl)cc1F [Example 1, 4-(4-Chloro-2-fluoroanilino)-7-[5-(4-morpholinylmethyl)-3-thienyl]-3-quinolinecarbonitrile] | 
7 | 10 nM | COc1cc(Nc2c(C#N)cnc3cc(-c4ccc(CCN5CCOCC5)cc4)c(OC)cc23)c(Cl)cc1Cl [Example 40, 4-(2,4-Dichloro-5-methoxyanilino)-6-methoxy-7-{4-[2-(4-morpholinyl)ethyl]phenyl}-3-quinolinecarbonitrile] | 
8 | 28 nM | COc1cc(Nc2c(C#N)cnc3cc(-c4cnc(CN5CCN(C)CC5)n4C)c(OC)cc23)c(Cl)cc1Cl [Example 233, 4-(2,4-dichloro-5-methoxyanilino)-6-methoxy-7-{1-methyl-2-[(4-methyl-1-piperazinyl)methyl]-1H-imidazol-5-yl}-3-quinolinecarbonitrile] | 
9 | 1.9 nM | COc1cc(Nc2c(C#N)cnc3cc(-c4ccc(N5CCN(C)CC5)nc4)ccc23)c(Cl)cc1Cl [Example 198, 4-(2,4-dichloro-5-methoxyanilino)-7-[6-(4-methyl-1-piperazinyl)-3-pyridinyl]-3-quinolinecarbonitrile] | 
10 | 4.4 nM and 1.5 nM | CCN1CCN(Cc2ccc(-c3ccc4c(Nc5cc(OC)c(Cl)cc5Cl)c(C#N)cnc4c3)cc2)CC1 [Example 30, 4-(2,4-Dichloro-5-methoxyanilino)-7-{4-[(4-ethyl-1-piperazinyl)methyl]phenyl}-3-quinolinecarbonitrile] | 
11 | 220 nM | COc1cc(Nc2c(C#N)cnc3cc(-c4cccc(CN5CCOCC5)c4)c(OC)cc23)c(Cl)cc1Cl [Example 39, 4-(2,4-Dichloro-5-methoxyanilino)-6-methoxy-7-[3-(4-morpholinylmethyl]phenyl}-3-quinolinecarbonitrile] | 
12 | 31 nM | COc1cc(Nc2c(C#N)cnc3cc(-c4cnc(CN5CCOCC5)n4C)ccc23)c(Cl)cc1Cl [Example 226, 4-(2,4-dichloro-5-methoxyanilino)-7-[1-methyl-2-(4-morpholinylmethyl)-1H-imidazol-5-yl]-3-quinolinecarbonitrile] | 
13 | 240 nM | COc1cc(Nc2c(C#N)cnc3cc(-c4cnc(C=O)n4C)ccc23)c(Cl)cc1Cl [Example 96, 4-(2,4-Dichloro-5-methoxyanilino)-7-(2-formyl-1-methyl-1H-imidazol-5-yl)-3-quinolinecarbonitrile] | 
14 | 2.7 nM | COc1cc(Nc2c(C#N)cnc3cc(-c4csc(C5OCCO5)c4)ccc23)c(Cl)cc1Cl [Example 42, 4-(2,4-Dichloro-5-methoxyanilino)-7-[5-(1,3-dioxolan-2-yl)-3-thienyl]-3-quinolinecarbonitrile] | 
15 | 1.7 nM | COc1cc(Nc2c(C#N)cnc3cc(-c4csc(C=O)c4)ccc23)c(Cl)cc1Cl [Example 43, 4-(2,4-Dichloro-5-methoxyanilino)-7-(5-formyl-3-thienyl)-3-quinolinecarbonitrile] | 
16 | 24 nM | COc1cc(Nc2c(C#N)cnc3cc(-c4cccc(CN5CCOCC5)c4)ccc23)c(Cl)cc1Cl [Example 26, 4-(2.4-Dichloro-5-methoxyanilino)-7-[3-(4-morpholinylmethyl)phenyl]-3-quinolinecarbonitrile] | 
17 | 0.69 nM | COc1cc(Nc2c(C#N)cnc3cc(-c4ccc(CN5CCC(C(=O)O)CC5)cn4)ccc23)c(Cl)cc1Cl [Example 177, 1-{6-[3-cyano-4-(2,4-dichloro-5-methoxyphenylamino)-quinolin-7yl]-pyridin-3-ylmethyl}-piperidine-4-carboxylic acid] | 

The remaining lines, values behind:

Row | Compound | IC50 (c-Src) | other results
18 | COc1cc(Nc2c(C#N)cnc3cc(-c4ccc(CN5CCSCC5)cc4)ccc23)c(Cl)cc1Cl [Example 153, 4-[(2,4-dichloro-5-methoxyphenyl)amino]-7-[4-(4-thiomorpholinylmethyl)phenyl]-3-quinolinecarbonitrile] |  | IC50 [1, 2]: 2800 nM; IC50 [1, 3]: 2700 nM
19 | COc1cc(Nc2c(C#N)cnc3cc(-c4ccc(CN5CC[S+]([O-])CC5)cc4)ccc23)c(Cl)cc1Cl [Example 151, 4-[(2,4-dichloro-5-methoxyphenyl)amino]-7-{4-[(1-oxido-4-thiomorpholinyl)methyl]phenyl}-3-quinolinecarbonitrile] | 4.7 nM | 
20 | N#Cc1cnc2cc(-c3csc(C=O)c3)ccc2c1Nc1ccc(Cl)cc1Cl [Example 44, 4-(2,4-Dichloroanilino)-7-(5-formyl-3-thienyl)-3-quinolinecarbonitrile] | 25 nM | 
21 | COc1cc(Nc2c(C#N)cnc3ccc(-c4csc(C=O)c4)cc23)c(Cl)cc1Cl [Example 45, 4-(2,4-Dichloro-5-methoxyanilino)-6-(5-formyl-3-thienyl)-3-quinolinecarbonitrile] | 51 nM | 
22 | COc1cc(Nc2c(C#N)cnc3cc(-c4cccc([N+](=O)[O-])c4)ccc23)c(Cl)cc1Cl [Example 122, 4-(2,4-Dichloro-5-methoxyanilino)-7-(3-nitrophenyl)-3-guinolinecarbonitrile] |  | inhibition at 10 µM (c-Src; at 10 µM): 44%
23 | CCN1CCN(Cc2ccc(-c3cc4ncc(C#N)c(Nc5cc(OC)c(Cl)cc5Cl)c4cc3OC)cc2)CC1 [Example 31, 4-(2,4-Dichloro-5-methoxyanilino)-7-{4-[(4-ethyl-1-piperazinyl)methyl]phenyl}-6-methoxy-3-quinolinecarbonitrile] | 8.3 nM and 5.6 nM | 
24 | N#Cc1cnc2cc(C#CCO)ccc2c1Nc1ccc(Cl)cc1Cl [Example 14, 4-(2,4-Dichloroanilino)-7-(3-hydroxy-1-propynyl)-3-quinolinecarbonitrile] |  | inhibition at 1 µM (c-Src; at 1 µM): 40%
25 | N#Cc1cnc2cc(-c3ccc(-c4ccccn4)s3)ccc2c1Nc1ccc(Cl)cc1Cl [Example 18, 4-(2,4-Dichloroanilino)-7-[5-(2-pyridinyl)-2-thienyl]-3-quinolinecarbonitrile] | 180 nM | 
26 | COc1cc(Nc2c(C#N)cnc3cc(-c4ccc(/C=C/CN5CCOCC5)s4)ccc23)c(Cl)cc1Cl [Example 21, 4-(2,4-Dichloro-5-methoxyanilino)-7-{5-[(E)-3-(4-morpholinyl)-1-propenyl]-2-thienyl}-3-quinolinecarbonitrile] | 40 nM and 9 nM | 
27 | COc1cc(Nc2c(C#N)cnc3cc(C#CCCl)ccc23)c(Cl)cc1Cl [Example 152, 7-(3-chloro-1-propynyl)-4-[(2,4-dichloro-5-methoxyphenyl)amino]-3-quinolinecarbonitrile] |  | IC50 [1, 2]: 4800 nM; IC50 [1, 3]: 3800 nM
28 | COc1cc(Nc2c(C#N)cnc3cc(-c4ccc(CCN5CCOCC5)cc4)ccc23)c(Cl)cc1Cl [Example 27, 4-(2,4-Dichloro-5-methoxyanilino)-7-{4-[2-(4-morpholinyl)ethyl]phenyl}1-3-quinolinecarbonitrile] |  | IC50 [1, 2]: 1020 nM
29 | 4-(2,4-dichloro-5-methoxyanilino)-7-{4-[(4-methyl-1-piperazinyl)]phenyl}-3-quinolinecarbonitrile [Example 218] |  | IC50 [1, 3]: 600 nM
30 | COc1cc(Nc2c(C#N)cnc3cc(-c4ccc(N5CCOCC5)nc4)ccc23)c(Cl)cc1Cl [Example 185, 4-(2,4-dichloro-5-methoxyanilino)-7-[6-(4-morpholinyl)-3-pyridinyl]-3-quinolinecarbonitrile] | 3.4 nM | 
31 | COc1cc(Nc2c(C#N)cnc3cc(C#CCN4CCOCC4)ccc23)c(Cl)cc1Cl [Example 146, 4-(2,4-dichloro-5-methoxyanilino)-7-[3-(4-morpholinyl)-1-propynyl]-3-quinolinecarbonitrile] |  | IC50 [1, 2]: 6500 nM
32 | COc1cc(Nc2c(C#N)cnc3cc(-c4ccc(CN5CCOCC5)c(CN5CCOCC5)c4)ccc23)c(Cl)cc1Cl [Example 34, 7-[3,4-Bis(4-morpholinylmethyl)phenyl]-4-(2,4-dichloro-5-methoxyanilino)-3-quinolinecarbonitrile] | 3 nM | 
33 | COc1cc(Nc2c(C#N)cnc3cc(-c4ccc(CN5CCN(C)CC5)o4)ccc23)c(Cl)cc1Cl [Example 41] |  | IC50 ([1]; Rattus norvegicus, Rat2, 120 h, read-out: anch-indep src-tx fib IC50): 380 nM
